Results from patent publication US10961215B2, “N-aryl and N-heteroaryl piperidine derivatives as liver X receptor beta agonists, compositions, and their use” (Merck Sharp & Dohme Corp., priority 2016, dated 2021).

Legend:
[1] = biological target: T1, GST tagged LXRalpha LBD (ligand binding domain) (Homo sapiens, UniProt Q13133); test: LanthaScreen TR-FRET Liver X Receptor Coactivator Assay, LXR alpha-LBD (co-activator recruitment; IP and % Emax relative to T0901317); format: biochemical; settings: for LXR alpha IP (nM) / EC50: Inflection Point of co-activator recruitment, LXR alpha-LBD, TR-FRET; for Emax: efficacy at max dose in relation to reference T0901317, LXR alpha-LBD, read-out: LXR alpha actiivty at max dose (%)
T1 construct: purchased Invitrogen pv4655
T1 sequence (Q13133 209-447 limits assumed): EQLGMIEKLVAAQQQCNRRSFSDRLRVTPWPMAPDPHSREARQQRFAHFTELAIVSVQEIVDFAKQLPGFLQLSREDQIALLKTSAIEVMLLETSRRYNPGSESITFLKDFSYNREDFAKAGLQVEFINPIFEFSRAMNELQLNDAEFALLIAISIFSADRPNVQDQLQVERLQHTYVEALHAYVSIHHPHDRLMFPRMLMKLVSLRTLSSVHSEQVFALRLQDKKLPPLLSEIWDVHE
Method in brief: (§1)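 LXR LBD protein was added to test compounds, then a mix of fluorescein-labelled coactivator peptide and terbium anti-GST antibody. After incubation at room temperature, TR-FRET was read. Inflection point and Emax were derived relative to the reference dual agonist T0901317.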

[2] = biological target: T2, GST tagged LXRbeta LBD (ligand binding domain) (Homo sapiens, UniProt P55055); test: LanthaScreen TR-FRET Liver X Receptor Coactivator Assay, LXR beta-LBD (co-activator recruitment; IP and % Emax relative to T0901317); format: biochemical; settings: for EC50: Inflection Point of co-activator recruitment, LXR beta-LBD, TR-FRET; for Emax: efficacy at max dose in relation to reference T0901317, LXR beta-LBD, read-out: LXR beta actiivty at max dose (%)
T2 construct: purchased Invitrogen pv4658.pps
T2 sequence (P55055 222-460 limits assumed): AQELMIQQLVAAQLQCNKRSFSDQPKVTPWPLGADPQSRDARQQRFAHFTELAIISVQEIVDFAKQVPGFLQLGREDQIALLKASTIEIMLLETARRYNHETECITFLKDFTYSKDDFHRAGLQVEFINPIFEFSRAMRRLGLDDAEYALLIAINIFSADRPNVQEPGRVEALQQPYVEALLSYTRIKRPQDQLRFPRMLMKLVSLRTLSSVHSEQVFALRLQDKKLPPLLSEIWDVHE
Method in brief: as §1

| Structure (SMILES) | LXR alpha IP (nM) [1] | Emax [1] | EC50 [2] | Emax [2] | EC50 [1] |
| --- | --- | --- | --- | --- | --- |
| COc1cccc([C@@](O)(C(=O)N(C)CCCC2CCN(c3ccc(C(=O)N4CC[C@@H](CO)C4)c(Cl)n3)CC2)C(F)(F)F)c1 [Example 2-7, (R)-N-(3-(1-(6-chloro-5-((R)-3-(hydroxymethyl)pyrrolidine-1-carbonyl)pyridin-2-yl)piperidin-4-yl)propyl)-3,3,3-trifluoro-2-hydroxy-2-(3-methoxyphenyl)-N-methylpropanamide] | No IP | 4% | 420 nM | 43% | – |
| CNC(=O)c1ccc(N2CCC(CCCN(C)C(=O)[C@](O)(c3cccc(OC)c3)C(F)(F)F)CC2)nc1Cl [Example 2-11, (R)-2-chloro-N-methyl-6-(4-(3-(3,3,3-trifluoro-2-hydroxy-2-(3-methoxyphenyl)-N-methylpropanamido)propyl)piperidin-1-yl)nicotinamide] | No IP | 13% | 524 nM | 60% | – |
| COc1cccc([C@@](O)(C(=O)N(C)CCCC2CCN(c3ccc(C(=O)N4CCC4)c(Cl)n3)CC2)C(F)(F)F)c1 [Example 2-15, (R)-N-(3-(1-(5-(azetidine-1-carbonyl)-6-chloropyridin-2-yl)piperidin-4-yl)propyl)-3,3,3-trifluoro-2-hydroxy-2-(3-methoxyphenyl)-N-methylpropanamide] | No IP | 0% | 272 nM | 49% | – |
| COc1cccc([C@@](O)(C(=O)N(C)CCCC2CCN(c3ccc(C(N)=O)c(Cl)n3)CC2)C(F)(F)F)c1 [Example 2-16, (R)-2-chloro-6-(4-(3-(3,3,3-trifluoro-2-hydroxy-2-(3-methoxyphenyl)-N-methylpropanamido)propyl)piperidin-1-yl)nicotinamide] | No IP | 12% | 296 nM | 54% | – |
| COc1cccc([C@@](O)(C(=O)N(C)CCCC2CCN(c3ccc(C(=O)N(C)C)c(C4CC4)n3)CC2)C(F)(F)F)c1 [Example 2-17, (R)-2-cyclopropyl-N,N-dimethyl-6-(4-(3-(3,3,3-trifluoro-2-hydroxy-2-(3-methoxyphenyl)-N-methylpropanamido)propyl)piperidin-1-yl)nicotinamide] | No IP | 0% | 5730 nM | 22% | – |
| COc1cccc([C@@](O)(C(=O)N(C)CCCC2CCN(c3ccc(C(=O)N(C)C)c(OC)n3)CC2)C(F)(F)F)c1 [Example 2-18, (R)-2-methoxy-N,N-dimethyl-6-(4-(3-(3,3,3-trifluoro-2-hydroxy-2-(3-methoxyphenyl)-N-methylpropanamido)propyl)piperidin-1-yl)nicotinamide] | No IP | 0% | 523 nM | 47% | – |
| COc1cccc([C@@](O)(C(=O)N(C)CCCC2CCN(c3ccc(C(=O)N(C)C)c(C)n3)CC2)C(F)(F)F)c1 [Example 2-20, (R)-N,N,2-trimethyl-6-(4-(3-(3,3,3-trifluoro-2-hydroxy-2-(3-methoxyphenyl)-N-methylpropanamido)propyl)piperidin-1-yl)nicotinamide] | No IP | 0% | 271 nM | 64% | – |
| COc1cccc([C@@](O)(C(=O)N(C)CCCC2CCN(c3cc(Cl)c(C(=O)N(C)C)cn3)CC2)C(F)(F)F)c1 [Example 2-21, (R)-4-chloro-N,N-dimethyl-6-(4-(3-(3,3,3-trifluoro-2-hydroxy-2-(3-methoxyphenyl)-N-methylpropanamido)propyl)piperidin-1-yl)nicotinamide] | – | 26% | 1910 nM | 30% | 5940 nM |
| COc1cccc([C@@](O)(C(=O)N(C)CCCC2CCN(c3ncc(C(=O)N(C)C)cc3Cl)CC2)C(F)(F)F)c1 [Example 2-22, (R)-5-chloro-N,N-dimethyl-6-(4-(3-(3,3,3-trifluoro-2-hydroxy-2-(3-methoxyphenyl)-N-methylpropanamido)propyl)piperidin-1-yl)nicotinamide] | No IP | 2% | 1120 nM | 32% | – |
| COc1cccc([C@@](O)(C(=O)N(C)CC(F)CC2CCN(c3ccc(C(=O)N(C)C)c(Cl)n3)CC2)C(F)(F)F)c1 (stereo partly drawn) [Example 3-3, 2-chloro-6-(4-(2-fluoro-3-((R)-3,3,3-trifluoro-2-hydroxy-2-(3-methoxyphenyl)-N-methylpropanamido)propyl)piperidin-1-yl)-N,N-dimethylnicotinamide] | No IP | 6% | 373 nM | 49% | – |
| COc1cccc([C@@](O)(C(=O)NC[C@@H](F)CC2CCN(c3ccc(C(=O)N(C)C)c(Cl)n3)CC2)C(F)(F)F)c1 [Example 3-6] | No IP | 7% | 961 nM | 38% | – |

The next compounds have a lower EC50 [2] than those just listed; values first:

| LXR alpha IP (nM) [1] | Emax [1] | EC50 [2] | Emax [2] | EC50 [1] | Structure (SMILES) |
| --- | --- | --- | --- | --- | --- |
| – | 40% | 11 nM | 47% | 690 nM | COc1cccc([C@@](O)(C(=O)N(C)CCCC2CCN(c3ccc(C(=O)N4CC[C@H](CO)C4)c(Cl)n3)CC2)C(F)(F)F)c1 [Example 2-8, (R)-N-(3-(1-(6-chloro-5-((S)-3-(hydroxymethyl)pyrrolidine-1-carbonyl)pyridin-2-yl)piperidin-4-yl)propyl)-3,3,3-trifluoro-2-hydroxy-2-(3-methoxyphenyl)-N-methylpropanamide] |
| – | 45% | 9 nM | 65% | 164 nM | COc1cccc([C@@](O)(C(=O)N(C)CCCC2CCN(c3ccc(C(=O)N4CC(NC(=O)OC(C)(C)C)C4)c(Cl)n3)CC2)C(F)(F)F)c1 [Example 2-9, (R)-tert-butyl 1-(2-chloro-6-(4-(3-(3,3,3-trifluoro-2-hydroxy-2-(3-methoxyphenyl)-N-methylpropanamido)propyl)piperidin-1-yl)nicotinoyl) azetidin-3-ylcarbamate] |
| No IP | 0% | 134 nM | 43% | – | COc1cccc([C@@](O)(C(=O)N(C)CCCC2CCN(c3ccc(C(=O)N4C(C)CCC4C)c(Cl)n3)CC2)C(F)(F)F)c1 (stereo partly drawn) [Example 2-10, (2R)-N-(3-(1-(6-chloro-5-(2,5-dimethylpyrrolidine-1-carbonyl)pyridin-2-yl)piperidin-4-yl)propyl)-3,3,3-trifluoro-2-hydroxy-2-(3-methoxyphenyl)-N-methylpropanamide] |
| – | 40% | 11 nM | 62% | 95 nM | COc1cccc([C@@](O)(C(=O)N(C)CCCC2CCN(c3ccc(C(=O)N(C)Cc4noc(C5CC5)n4)c(Cl)n3)CC2)C(F)(F)F)c1 [Example 2-12, (R)-2-chloro-N-((5-cyclopropyl-1,2,4-oxadiazol-3-yl)methyl)-N-methyl-6-(4-(3-(3,3,3-trifluoro-2-hydroxy-2-(3-methoxyphenyl)-N-methylpropanamido)propyl)piperidin-1-yl)nicotinamide] |
| No IP | 11% | 195 nM | 60% | – | COc1cccc([C@@](O)(C(=O)N(C)CCCC2CCN(c3ccc(C(=O)N4CC(N)C4)c(Cl)n3)CC2)C(F)(F)F)c1 [Example 2-13, (R)-N-(3-(1-(5-(3-aminoazetidine-1-carbonyl)-6-chloropyridin-2-yl)piperidin-4-yl)propyl)-3,3,3-trifluoro-2-hydroxy-2-(3-methoxyphenyl)-N-methylpropanamide] |
| No IP | 14% | 83 nM | 67% | – | COc1cccc([C@@](O)(C(=O)N(C)CCCC2CCN(c3ccc(C(=O)N(C)CCn4cncn4)c(Cl)n3)CC2)C(F)(F)F)c1 [Example 2-14] |
| – | 23% | 128 nM | 76% | 2610 nM | CN(C)C(=O)c1ccc(N2CCC(CCCN(C)C(=O)[C@](O)(c3ccccc3)C(F)(F)F)CC2)nc1C#N [Example 2-19, (R)-2-cyano-N,N-dimethyl-6-(4-(3-(3,3,3-trifluoro-2-hydroxy-N-methyl-2-phenylpropanamido)propyl)piperidin-1-yl)nicotinamide] |
| No IP | 19% | 134 nM | 87% | – | COc1cccc([C@@](O)(C(=O)NC[C@@H](C)CC2CCN(c3ccc(C(=O)N(C)C)c(Cl)n3)CC2)C(F)(F)F)c1 [Example 3-4, 2-chloro-N,N-dimethyl-6-(4-((S)-2-methyl-3-((R)-3,3,3-trifluoro-2-hydroxy-2-(3-methoxyphenyl)propanamido)propyl)piperidin 1-yl)nicotinamide] |
| – | 22% | 156 nM | 57% | 2890 nM | COc1cccc([C@@](O)(C(=O)NC[C@H](C)CC2CCN(c3ccc(C(=O)N(C)C)c(Cl)n3)CC2)C(F)(F)F)c1 [Example 3-5] |
